Laboratory results: patent US20130137865A1 (TAISHO PHARMACEUTICAL CO., LTD., priority 2010, published 2013)

biological target: T1, rat mGlu2 receptor (Rattus norvegicus, UniProt P31421); test: [35S]GTPγS binding test (1), membranes of CHO cells stably expressing rat mGlu2; assay type: biochemical; conditions: inhibition of glutamic acid (20 μM)-stimulated specific [35S]GTPγS binding
T1 construct: expressed in transfected cells; host or cells: CHO cells
Protocol: (Preparation of Crude Membrane Fraction of CHO Cells Stably Expressing the Rat Metabotropic Glutamate Receptor (mGlu2))
(§1) CHO cells stably expressing the rat mGlu2 receptor were cultured in a 10% dialyzed fetal bovine serum-containing Dulbecco's Modified Eagle's Medium [1% proline, 50 units/mL penicillin, 50 μg/mL streptomycin, and 2 mM L-glutamine (to be added when used)] at 37° C. in 5% CO2. Confluent cells were washed with PBS(−) twice, and were then harvested with a cell scraper. Then, the cells were centrifuged at 4° C. at 1000 rpm for 5 minutes to collect. The obtained precipitate was suspended in a 20 mM HEPES buffer (pH 7.4), and then homogenized with a Teflon® homogenizer. The resultant was centrifuged at 4° C. at 48,000×g for 20 minutes to obtain a precipitate again. The obtained precipitate was washed twice by centrifugation, and was then homogenized with the above-mentioned buffer, so as to obtain a crude membrane fraction. The obtained crude membrane fraction was preserved at −80° C.
(§2) The frozen membrane fraction as prepared above was thawed when used, and it was then diluted with a binding test buffer (final concentration: 20 mM HEPES, 100 mM NaCl, 10 mM MgCl2, 8.4 μM GDP, 10 μg/mL saponin, and 0.1% BSA). The compound of the Example was added to a membrane fraction (10 μg protein/assay), and the obtained mixture was then incubated at 30° C. for 20 minutes. Thereafter, glutamic acid (final concentration: 20 μM) and [^35S]GTPγS (final concentration: 0.15 nM) were added to the reaction mixture, and then incubated at 30° C. for 1 hour. After completion of the incubation, the reaction mixture was subjected to filtration over a Whatman GF/C filter that had previously been immersed in a 20 mM HEPES buffer (pH 7.4), and the filter was then washed three times with 300 μL of ice-cold 20 mM HEPES buffer (pH 7.4). A scintillation cocktail was added to the resulting filter, and membrane-bound radioactivity was then measured with a liquid scintillation counter.
(§3) The amount of [^35S]GTPγS bound in the case of carrying out the above described reaction in the absence of glutamic acid was defined as non-specific binding. The difference between such non-specific bound and the amount of [^35S]GTPγS bound in the presence of glutamic acid was defined as specific binding. Using non-linear analysis, a concentration-inhibition curve was produced. The concentration of the compound of each Example that caused 50% inhibition (IC50 value) of specific binding was determined from each concentration-inhibition curve.

T1 sequence (P31421 19-872): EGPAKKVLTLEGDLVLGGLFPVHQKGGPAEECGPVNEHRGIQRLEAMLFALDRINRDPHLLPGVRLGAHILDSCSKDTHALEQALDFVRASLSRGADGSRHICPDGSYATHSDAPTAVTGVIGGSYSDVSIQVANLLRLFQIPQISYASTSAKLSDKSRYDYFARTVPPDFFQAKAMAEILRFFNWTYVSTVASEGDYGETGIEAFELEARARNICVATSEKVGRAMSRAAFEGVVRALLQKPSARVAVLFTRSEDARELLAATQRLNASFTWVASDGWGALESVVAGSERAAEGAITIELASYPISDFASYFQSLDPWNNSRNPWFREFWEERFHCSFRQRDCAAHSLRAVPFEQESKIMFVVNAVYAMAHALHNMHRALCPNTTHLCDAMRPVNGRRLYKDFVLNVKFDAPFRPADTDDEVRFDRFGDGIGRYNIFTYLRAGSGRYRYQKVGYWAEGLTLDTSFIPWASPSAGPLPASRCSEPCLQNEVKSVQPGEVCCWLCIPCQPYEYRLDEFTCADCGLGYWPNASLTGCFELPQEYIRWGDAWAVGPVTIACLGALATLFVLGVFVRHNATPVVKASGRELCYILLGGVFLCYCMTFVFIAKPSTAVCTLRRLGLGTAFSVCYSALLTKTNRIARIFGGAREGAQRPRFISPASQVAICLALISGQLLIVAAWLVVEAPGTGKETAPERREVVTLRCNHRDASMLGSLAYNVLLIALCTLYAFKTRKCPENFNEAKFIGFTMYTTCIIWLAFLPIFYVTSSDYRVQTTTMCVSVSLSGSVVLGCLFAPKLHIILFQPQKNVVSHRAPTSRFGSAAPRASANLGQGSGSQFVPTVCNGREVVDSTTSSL

IC50 | Compound
3.56 nM | Cn1ncc(-c2nc(-c3cccc(S(N)(=O)=O)c3)no2)c1COc1cccc(OC(F)(F)F)c1 [Example 69, 3-[5-(1-Methyl-5-{[3-(trifluoromethoxy)phenoxy]methyl}-1H-pyrazol-4-yl)-1,2,4-oxadiazol-3-yl]benzenesulfonamide]
12 nM | CCn1ncc(-c2nc(-c3cccc(S(N)(=O)=O)c3)no2)c1CCc1ccc(C(F)(F)F)cc1 [Example 39, 3-[5-(1-Ethyl-5-{2-[4-(trifluoromethyl)phenyl]ethyl}-1H-pyrazol-4-yl)-1,2,4-oxadiazol-3-yl]benzenesulfonamide]
27.5 nM | Cn1ncc(-c2nc(-c3cccc(S(N)(=O)=O)c3)no2)c1-c1cnn(-c2ccc(Cl)cc2)c1 [Example 25, 3-{5-[1′-(4-Chlorophenyl)-2-methyl-1′H,2H-3,4′-bipyrazol-4-yl]-1,2,4-oxadiazol-3-yl}benzenesulfonamide]

biological target: T2, human mGlu2 receptor (Homo sapiens, UniProt Q14416); test: [35S]GTPγS binding test (2), membranes of CHO cells stably expressing human mGlu2; assay type: biochemical; conditions: inhibition of glutamic acid (20 μM)-stimulated specific [35S]GTPγS binding
T2 construct: expressed in transfected cells; host or cells: CHO cells
T2 sequence (Q14416 19-872): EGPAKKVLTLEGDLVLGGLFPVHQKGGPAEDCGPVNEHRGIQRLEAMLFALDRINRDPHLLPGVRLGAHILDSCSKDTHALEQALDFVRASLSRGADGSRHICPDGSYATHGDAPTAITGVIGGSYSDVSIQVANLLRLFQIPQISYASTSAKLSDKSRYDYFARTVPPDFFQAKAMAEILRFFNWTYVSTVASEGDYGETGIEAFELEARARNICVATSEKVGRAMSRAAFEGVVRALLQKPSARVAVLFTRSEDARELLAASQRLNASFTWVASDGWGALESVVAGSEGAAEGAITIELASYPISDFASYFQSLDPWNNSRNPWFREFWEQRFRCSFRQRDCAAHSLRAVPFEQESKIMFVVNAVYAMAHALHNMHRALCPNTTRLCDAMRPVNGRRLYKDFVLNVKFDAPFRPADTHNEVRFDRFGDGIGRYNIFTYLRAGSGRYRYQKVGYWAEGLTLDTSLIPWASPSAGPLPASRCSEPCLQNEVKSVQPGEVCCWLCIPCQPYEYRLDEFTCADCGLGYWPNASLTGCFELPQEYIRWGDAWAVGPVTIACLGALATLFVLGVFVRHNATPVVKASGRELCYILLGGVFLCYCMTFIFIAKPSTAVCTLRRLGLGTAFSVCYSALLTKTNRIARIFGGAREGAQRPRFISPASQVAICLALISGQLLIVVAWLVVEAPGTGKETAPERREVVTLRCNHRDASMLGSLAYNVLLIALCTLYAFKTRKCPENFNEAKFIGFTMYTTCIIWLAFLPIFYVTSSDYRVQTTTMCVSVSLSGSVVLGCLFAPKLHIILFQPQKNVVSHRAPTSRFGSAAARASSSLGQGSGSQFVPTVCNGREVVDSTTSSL
Protocol: (Preparation of Crude Membrane Fraction of CHO Cells Stably Expressing the Human Metabotropic Glutamate Receptor (mGlu2))
as §1, with “human” for “rat”, “streptomycin, 400 μg/mL hygromycin B,” for “streptomycin,”
as §2, §3

IC50 | Compound
17.1 nM | Cn1ncc(-c2nc(-c3cncc(S(C)(=O)=O)c3)no2)c1COc1ccc(C(F)(F)F)cn1 [Example 223, 2-[(1-Methyl-4-{3-[5-(methylsulfonyl)pyridin-3-yl]-1,2,4-oxadiazol-5-yl}-1H-pyrazol-5-yl)methoxy]-5-(trifluoromethyl)pyridine]
29.1 nM | CC(=O)Nc1cc(-c2noc(-c3cnn(C)c3COc3ccc(C(F)(F)F)cc3)n2)ccn1 [Example 208, N-{4-[5-(1-methyl-5-{[4-(trifluoromethyl)phenoxy]methyl}-1H-pyrazol-4-yl)-1,2,4-oxadiazol-3-yl]pyridin-2-yl}acetamide]
36.7 nM | Cn1ncc(-c2nc(-c3cccc(S(N)(=O)=O)c3)no2)c1COc1ccccn1 [Example 75, 3-(5-{1-Methyl-5-[(pyridin-2-yloxy)methyl]-1H-pyrazol-4-yl}-1,2,4-oxadiazole-3-yl)benzenesulfonamide]
1.33 nM | Cn1ncc(-c2nc(-c3cccc(S(N)(=O)=O)c3)no2)c1COc1ccc(C(F)(F)F)cn1 [Example 122, 3-{5-[1-Methyl-5-({[5-(trifluoromethyl)pyridin-2-yl]oxy}methyl)-1H-pyrazol-4-yl]-1,2,4-oxadiazol-3-yl}benzenesulfonamide]
32.2 nM | Cn1ncc(-c2nc(-c3cccc(N)c3)no2)c1COc1ccc(C(F)(F)F)cn1 [Example 220, 3-{5-[1-Methyl-5-({[5-(trifluoromethyl)pyridin-2-yl]oxy}methyl)-1H-pyrazol-4-yl]-1,2,4-oxadiazol-3-yl}aniline]
33.2 nM | CNCCNS(=O)(=O)c1cccc(-c2noc(-c3cnn(C)c3COc3ccc(F)cn3)n2)c1 [Example 232, 3-[5-(5-{[(5-Fluoropyridin-2-yl)oxy]methyl}-1-methyl-1H-pyrazol-4-yl)-1,2,4-oxadiazol-3-yl]-N-[2-(methylamino)ethyl]benzenesulfonamide]
21.5 nM | Cn1ncc(-c2nnc(-c3cccc(S(N)(=O)=O)c3)o2)c1COc1ccc(C(F)(F)F)cn1 [Example 187, 3-{5-[1-Methyl-5-({[5-(trifluoromethyl)pyridin-2-yl]oxy}methyl)-1H-pyrazol-4-yl]-1,3,4-oxadiazol-2-yl}benzenesulfonamide]
4.32 nM | Cn1ncc(-c2nc(-c3cccc(S(C)(=O)=O)c3)no2)c1COc1ccc(C(F)(F)F)cn1 [Example 216, 2-[(1-Methyl-4-{3-[3-(methylsulfonyl)phenyl]-1,2,4-oxadiazol-5-yl}-1H-pyrazol-5-yl)methoxy]-5-(trifluoromethyl)pyridine]
49.1 nM | Cn1ncc(-c2nc(-c3ccc(S(C)(=O)=O)cc3)no2)c1COc1ccc(C(F)(F)F)cn1 [Example 215, 2-[(1-Methyl-4-{3-[4-(methylsulfonyl)phenyl]-1,2,4-oxadiazol-5-yl}-1H-pyrazol-5-yl)methoxy]-5-(trifluoromethyl)pyridine]
10.3 nM | Cn1ncc(-c2nc(-c3cccc(S(N)(=O)=O)c3)no2)c1COc1ccc(F)cn1 [Example 72, 3-[5-(5-{[(5-Fluoropyridin-2-yl)oxy]methyl}-1-methyl-1H-pyrazol-4-yl)-1,2,4-oxadiazol-3-yl]benzenesulfonamide]
67.2 nM | Cn1ncc(-c2nnc(-c3ccc(S(N)(=O)=O)cc3)o2)c1COc1ccc(C(F)(F)F)cc1 [Example 190, 4-[5-(1-Methyl-5-{[4-(trifluoromethyl)phenoxy]methyl}-1H-pyrazol-4-yl)-1,3,4-oxadiazol-2-yl]benzenesulfonamide]
50.8 nM | Cn1ncc(-c2cc(-c3cccc(S(N)(=O)=O)c3)on2)c1COc1ccc(F)cn1 [Example 204, 3-[3-(5-{[(5-Fluoropyridin-2-yl)oxy]methyl}-1-methyl-1H-pyrazol-4-yl)-1,2-oxazol-5-yl]benzenesulfonamide]
28.6 nM | Cn1ncc(-c2nc(-c3ccc(N)nc3)no2)c1COc1ccc(C(F)(F)F)cc1 [Example 92, 5-[5-(1-Methyl-5-{[4-(trifluoromethyl)phenoxy]methyl}-1H-pyrazol-4-yl)-1,2,4-oxadiazol-3-yl]pyridine-2-amine]
26.4 nM | Cn1ncc(-c2nc(-c3cccc(S(N)(=O)=O)c3)no2)c1COc1ncc(F)cc1Br [Example 214, 3-[5-(5-{[(3-Bromo-5-fluoropyridin-2-yl)oxy]methyl}-1-methyl-1H-pyrazol-4-yl)-1,2,4-oxadiazol-3-yl]benzenesulfonamide]
3.85 nM | Cn1ncc(-c2coc(-c3cccc(S(N)(=O)=O)c3)n2)c1COc1ccc(C(F)(F)F)cc1 [Example 203, 3-[4-(1-Methyl-5-{[4-(trifluoromethyl)phenoxy]methyl}-1H-pyrazol-4-yl)-1,3-oxazol-2-yl]benzenesulfonamide]
13.2 nM | CNS(=O)(=O)c1cccc(-c2noc(-c3cnn(C)c3COc3ccccn3)n2)c1 [Example 146, N-Methyl-3-(5-{1-methyl-5-[(pyridin-2-yloxy)methyl]-1H-pyrazol-4-yl}-1,2,4-oxadiazol-3-yl)benzenesulfonamide]
56.9 nM | Cn1ncc(-c2nc(-c3cc[nH]c(=O)c3)no2)c1COc1ccc(C(F)(F)F)cn1 [Example 228, 4-{5-[1-Methyl-5-({[5-(trifluoromethyl)pyridin-2-yl]oxy}methyl)-1H-pyrazol-4-yl]-1,2,4-oxadiazol-3-yl}pyridine-2(1H)-one]
13.6 nM | CN(C)CCNS(=O)(=O)c1cccc(-c2noc(-c3cnn(C)c3COc3ccc(F)cn3)n2)c1 [Example 85, N-[2-(Dimethylamino)ethyl]-3-[5-(5-{[(5-fluoropyridin-2-yl)oxy]methyl}-1-methyl-1H-pyrazol-4-yl)-1,2,4-oxadiazol-3-yl]benzenesulfonamide]
3.64 nM | Cn1ncc(-c2nc(-c3cncc(S(N)(=O)=O)c3)no2)c1COc1ccc(C(F)(F)F)cn1 [Example 224, 5-{5-[1-Methyl-5-({[5-(trifluoromethyl)pyridin-2-yl]oxy}methyl)-1H-pyrazol-4-yl]-1,2,4-oxadiazol-3-yl}pyridine-3-sulfonamide]
14.9 nM | CC(=O)Nc1cc(-c2noc(-c3cnn(C)c3COc3ccc(C(F)(F)F)cn3)n2)ccn1 [Example 217, N-(4-{5-[1-Methyl-5-({[5-(trifluoromethyl)pyridin-2-yl]oxy}methyl)-1H-pyrazol-4-yl]-1,2,4-oxadiazol-3-yl}pyridin-2-yl)acetamide]
68 nM | Cn1ncc(-c2nc(-c3cnc(N)nc3)no2)c1COc1ccc(C(F)(F)F)cn1 [Example 218, 5-{5-[1-Methyl-5-({[5-(trifluoromethyl)pyridin-2-yl]oxy}methyl)-1H-pyrazol-4-yl]-1,2,4-oxadiazol-3-yl}pyrimidine-2-amine]
80.6 nM | Cn1nc(-c2cccc(S(N)(=O)=O)c2)nc1-c1cnn(C)c1COc1ccc(C(F)(F)F)cc1 [Example 233, 3-[1-Methyl-5-(1-methyl-5-{[4-(trifluoromethyl)phenoxy]methyl}-1H-pyrazol-4-yl)-1H-1,2,4-triazol-3-yl]benzenesulfonamide]
